For data set [1], the system named is SH-SY5Y cell line. In words: mitophagy activity, mt-Keima, flow cytometry (FACS). The conditions noted are these: SH-SY5Y expressing mt-Keima. Type of data set: cell-based, human. Here is the method: (§1) It was confirmed whether CD1-012 synthesized in Example 1 increases mitophagy activity in various cell lines. To this end, CD1-012 and Comparative Example 1 (CCCP) were treated in the SH-SY5Y cell line, a human neuroblastoma cell line expressing mt-Keima fluorescent protein, and in the HeLa-Parkin cell line, a HeLa cervical cancer cell line expressing Parkin (E3 ligase). Following this treatment, the mitophagy activity of each sample was analyzed using flow cytometry (FACS), and the results are shown in FIGS. 2A to 2B.
(Flow cytometry measures light scatter and fluorescence of single cells or particles in a stream.)

The test system of data set [2] is HeLa-Parkin cell line. Kind of data set: mitophagy activity, flow cytometry (FACS). Type of data set: cell-based. Here is the method:
as §1

The test system of data set [3] is mitochondrial membrane potential. Kind of data set: TMRM assay. The conditions noted are these: CD1-012 10 μM or 15 μM, CCCP 10 μM, 24 hours. Type of data set: cell-based. Here is the method:
It was confirmed whether the isoquinoline derivative according to the present invention induces mitochondrial dysfunction, similar to CCCP. To this end, the CD1-012 (10 μM or 15 μM) and CCCP (10 μM) were treated for 24 hours, and the mitochondrial membrane potential and mitochondrial reactive oxygen species (ROS) levels in each sample were analyzed. Mitochondrial membrane potential was analyzed using the TMRM (tetramethylrhodamine methyl ester) assay, and mitochondrial ROS levels were analyzed using the MitoSOX assay.

In data set [4] the test system is third-instar larvae of Drosophila (w1118). Type of data set: in vivo. As to the method: To this end, thermal sensitivity was measured in a Drosophila model of paclitaxel-induced peripheral neuropathy. […] As a result, after treatment with paclitaxel, hyperalgesia was observed, as indicated by a 35% reduction in withdrawal latency from 6.9 seconds to 4.5 seconds (FIG. 8A). Subsequently, to confirm the therapeutic effect of CD1-012 on peripheral neuropathy, Drosophila were treated with CD1-012 at a concentration of 1 mM along with paclitaxel (20 μM).
(§2) Subsequently, to understand the molecular mechanism underlying the therapeutic effect of CD1-012 on chemotherapy-induced peripheral neuropathy, the therapeutic effect of CD1-012 was examined after suppressing the expression of ULK1 or Rap9, which are essential genes in the recently identified alternative mitophagy pathway. To this end, a heat probe assay was performed using a 40° C. thermal probe after co-treating paclitaxel (20 μM) and CD1-012 (1 mM) in Drosophila expressing shULK1 or shRap9 in C4da sensory neurons, as well as in control Drosophila (wild-type). As a result, in the control group, the peripheral neuropathy symptoms (reduction in withdrawal latency) induced by paclitaxel were recovered by CD1-012 treatment.

Data set [5] deals with C4da sensory neurons (ppk1a>CD4-tdTom Drosophila). In words: morphology of dendritic branches of C4da sensory neurons. Type of data set: in vivo. Conditions: CD1-012 co-administered with paclitaxel. An excerpt: To analyze the morphological changes in the dendritic branches of C4da sensory neurons, transgenic Drosophila expressing the fluorescent protein CD4-tdTomato specifically in C4da neurons (ppk^1a>CD4-tdTom) was generated. After treatment of the transgenic flies with paclitaxel and CD1-012, morphological changes in the dendritic branches of C4da sensory neurons were examined. As a result, treatment with paclitaxel increased the total dendrite length and the number of dendritic branches by 22% and 33%, respectively, confirming that morphological changes in the sensory neurons were induced.

Data set [6] has as its system Drosophila expressing shULK1 in C4da sensory neurons. In words: heat probe assay, ULK1 suppressed. Type of data set: in vivo. The conditions noted are these: ULK1 expression suppressed; paclitaxel 20 μM and CD1-012 1 mM. Here is the method:
as §2

Data set [7] relates to chemotherapy-induced peripheral neuropathy mouse model. Kind of data set: vonfrey hair test, peripheral neuropathy mouse model. Type of data set: in vivo. Conditions: mice, CD1-012 10 mg/kg or 20 mg/kg co-administered with paclitaxel, FIG. 12A. Here is the method:
To more clearly verify the therapeutic effect of the isoquinoline derivative of the present invention on peripheral neuropathy, particularly chemotherapy-induced peripheral neuropathy, experiments were conducted using a peripheral neuropathy mouse model. Specifically, peripheral neuropathy was induced in mice by administration of a chemotherapeutic agent (paclitaxel), and CD1-012 was co-administered at a dose of 10 mg/kg or 20 mg/kg. Sensitivity to pain was then analyzed using the vonfrey hair test.

One molecule from patent US20260144783A1, “COMPOSITION FOR PREVENTING OR TREATING PERIPHERAL NEUROPATHY, CONTAINING ISOQUINOLINE DERIVATIVE AS ACTIVE INGREDIENT” (ALTMEDICAL CO., LTD., priority 2022, published 2026) can be followed below.

Consider `Oc1cc2c(cc1O)-c1cc3ccc(O)c(O)c3c[n+]1CC2` [CD1-012, 2,3,9,10-tetrahydroxy-5,6-dihydroisoquinolino[3,2-a]isoquinolin-7-ium bromide], for which the “mitophagy activity compared to the control group (Con)” value in data set [1] and in data set [2] was “significantly increased” each time. The mitochondrial membrane potential entry in data set [3] is listed as “no decrease”. Further, the “withdrawal latency as percent of the wild-type level” value in data set [4] (CD1-012 1 mM along with paclitaxel 20 μM) was 91%. The withdrawal latency in data set [4] (CD1-012 1 mM along with paclitaxel 20 μM, heat probe 40° C., paclitaxel alone 4.5 seconds) came to 6.3 s. Also, in data set [4] (control Drosophila (wild-type), paclitaxel 20 μM and CD1-012 1 mM, 40° C. probe), the “peripheral neuropathy symptoms (reduction in withdrawal latency) induced by paclitaxel” value is on record as “recovered”. The “paclitaxel-induced increase in dendrite length” value in data set [5] was “significantly suppressed”. In addition, the “paclitaxel-induced increase in number of branches” value in data set [5] was “significantly suppressed”. Moreover, in data set [6], the “therapeutic effect on paclitaxel-induced peripheral neuropathy (withdrawal latency)” value was “completely abolished”. Moreover, in data set [7], the “hyperalgesic symptoms (sensitivity to pain)” value is on record as “significant improvement”.
